From EP0598515A1, “Method for herbicidal activity-enhancing, activity-enhanced herbicidal composition and activity-enhancing composition” (ISHIHARA SANGYO KAISHA LTD., priority 1992, dated 1994)
Several values for one entry are separate records, joined by “and”; a condition that tells them apart may be missing. Equal entries are not always repeated.

Test system: Crabgrass (Digitaria sanginalis L.)
Assay: Test Example 5: pot test with kinds of vegetable oil
Assay type: in vivo
Conditions: Example 7 water dispersible granules, 0.2% by volume Frigate + 0.4% by volume vegetable oil (90 parts oil, 10 parts Geronol VO/278), 23 days after treatment, duplicate
Experimental: Crabgrass (Digitaria sanginalis L.) seeds were sown in 1/1,000,000-hectare pots filled with upland soil and arranged in a duplicate system. When the crabgrass plants grew to a 3.5- to 4.0-leaf stage, water dispersible granules obtained in Example 7 described hereinbefore was diluted with 200 liters/hectare of water containing 0.2% by volume of Frigate and 0.4% by volume of a vegetable oil which was previously prepared by mixing with a predetermined amount of Geronol VO/278 (trade name) and was applied foliarly to the plants with a small spray gun.
Twenty three days after treatment, the growth inhibition of the plants was evaluated with visual observation in the same manner as in Test Example 1 and are shown in Table 5.
In the test, a vegetable oil, a fatty acid originated therefrom and an alkylester of the fatty acid were used as the vegetable oil and which are each of mixture of 10 parts by weight of Geronol VO/278 and 90 parts by weight of the following vegetable oil, fatty acids originated from vegetable oils and alkylesters of fatty acids. • (a) corn oil • (b) fatty acid originated from corn oil (prepared by hydrolysis of corn oil) • (c) methylester of (b) • (d) methylester of fatty acid originated from cottonseed oil • (e) methylester of fatty acid originated from rapeseed oil • (f) methyl oleate (trade name: ADJ-100) • (g) butyl oleate (trial product No. 93091; produced by Takemoto Oils and Fats) TABLE 5

SMILES | Growth Inhibition (%) of Crabgrass (Compound A 2.5 g/ha) [%] | Growth Inhibition (%) of Crabgrass (Compound A 5 g/ha)
CCCCCCCC/C=C\CCCCCCCC(=O)OCCCC [g, butyl oleate] | 70 | 95% and 80%
CCCCCCCC/C=C\CCCCCCCC(=O)OC [f, methyl oleate] | 60 | 90%
